Measured values from publication PMC9150124, “Design of a Potent, Selective, and Brain-Penetrant Inhibitor of Wnt-Deactivating Enzyme Notum by Optimization of a Crystallographic Fragment Hit” (Journal of Medicinal Chemistry, 2022).
Where two headings read alike, the source gives them in different places.

What was measured:
[1] = target: kinase named in conditions (Homo sapiens, UniProt O14936); assay: SelectScreen kinase profiling, SSBK LanthaScreen Binding SP Technology; settings: CASK, 10 μM
Description: (§1) Kinase selectivity screening was performed by Thermo Fisher Scientific (Paisley, U.K.) in their SelectScreen Biochemical Kinase Profiling Service. Assay information and data are presented in the Supporting Information.
(§2) Kinase selectivity screening was performed by ThermoFisher Scientific (Paisley, U.K.) in their SelectScreenTM
(§3) Biochemical Kinase Profiling service .
(§4) Illustration reproduced courtesy of Cell Signaling technology, Inc.
(§5) (B) Illustration of phylogenetic tree of kinases screened.

[2] = target: kinase named in conditions (Homo sapiens, UniProt O75716); assay: as above; settings: STK16 (PKL12), 10 μM
Description: as §1, §2, §3, §4, §5

[3] = target: kinase named in conditions (Homo sapiens, UniProt O94921); assay: as above; settings: CDK14 (PFTK1)/cyclin Y, 10 μM
Description: as §1, §2, §3, §4, §5

[4] = target: kinase named in conditions (Homo sapiens, UniProt P06241); assay: as above; settings: FYN A, 10 μM
Description: as §1, §2, §3, §4, §5

[5] = target: kinase named in conditions (Homo sapiens, UniProt P07949, M918T); assay: as above; settings: RET M918T, 10 μM
Description: as §1, §2, §3, §4, §5

[6] = target: kinase named in conditions (Homo sapiens, UniProt P08581, D1228H); assay: as above; settings: MET D1228H, 10 μM
Description: as §1, §2, §3, §4, §5

[7] = target: kinase named in conditions (Homo sapiens, UniProt P10721, D816V); assay: as above; settings: KIT D816V, 10 μM
Description: as §1, §2, §3, §4, §5

[8] = target: kinase named in conditions (Homo sapiens, UniProt P10721, D820E); assay: as above; settings: KIT D820E, 10 μM
Description: as §1, §2, §3, §4, §5

[9] = target: kinase named in conditions (Homo sapiens, UniProt P10721, Y823D); assay: as above; settings: KIT Y823D, 10 μM
Description: as §1, §2, §3, §4, §5

[10] = target: kinase named in conditions (Homo sapiens, UniProt P50750); assay: as above; settings: 10 μM
Description: as §1, §2, §3, §4, §5

[11] = target: kinase named in conditions (Homo sapiens, UniProt P53671); assay: as above; settings: LIMK2, 10 μM
Description: as §1, §2, §3, §4, §5

[12] = target: kinase named in conditions (Homo sapiens, UniProt Q00526); assay: as above; settings: CDK3/cyclin E1, 10 μM
Description: as §1, §2, §3, §4, §5

[13] = target: kinase named in conditions (Homo sapiens, UniProt Q00536); assay: as above; settings: CDK16 (PCTK1)/cyclin Y, 10 μM
Description: as §1, §2, §3, §4, §5

[14] = target: kinase named in conditions (Homo sapiens, UniProt Q02750, S218D/S222D); assay: as above; settings: MAP2K1 (MEK1) S218D S222D, 10 μM
Description: as §1, §2, §3, §4, §5

[15] = target: kinase named in conditions (Homo sapiens, UniProt Q86YV6); assay: as above; settings: MYLK4, 10 μM
Description: as §1, §2, §3, §4, §5

[16] = target: kinase named in conditions (Homo sapiens, UniProt Q8N5S9); assay: as above; settings: CAMKK1 (CAMKKA), 10 μM
Description: as §1, §2, §3, §4, §5

[17] = target: kinase named in conditions (Homo sapiens, UniProt Q8TD08); assay: as above; settings: MAPK15 (ERK7), 10 μM
Description: as §1, §2, §3, §4, §5

[18] = target: kinase named in conditions (Homo sapiens, UniProt Q92918); assay: as above; settings: MAP4K1 (HPK1), 10 μM
Description: as §1, §2, §3, §4, §5

[19] = target: kinase named in conditions (Homo sapiens, UniProt Q9H2K8); assay: as above; settings: TAOK3 (JIK), 10 μM
Description: as §1, §2, §3, §4, §5

[20] = target: kinase named in conditions (Homo sapiens, UniProt Q9HAZ1); assay: as above; settings: CLK4, 10 μM
Description: as §1, §2, §3, §4, §5

[21] = target: kinase named in conditions (Homo sapiens, UniProt Q9HBH9); assay: as above; settings: MKNK2 (MNK2), 10 μM
Description: as §1, §2, §3, §4, §5

[22] = target: kinase named in conditions (Homo sapiens, UniProt Q9NRM7); assay: as above; settings: LATS2, 10 μM
Description: as §1, §2, §3, §4, §5

[23] = target: kinase named in conditions (Homo sapiens, UniProt Q9NY57); assay: as above; settings: STK32B (YANK2), 10 μM
Description: as §1, §2, §3, §4, §5

[24] = target: kinase named in conditions (Homo sapiens, UniProt Q9Y2K2); assay: as above; settings: SIK3, 10 μM
Description: as §1, §2, §3, §4, §5

[25] = target: kinase named in conditions (Homo sapiens, UniProt Q9Y572); assay: as above; settings: RIPK3, 10 μM
Description: as §1, §2, §3, §4, §5

CYP2C8 = target: T1, CYP2C8 (Homo sapiens, UniProt P10632); assay: CYP450 inhibition in HLM
T1 sequence (P10632 1-490): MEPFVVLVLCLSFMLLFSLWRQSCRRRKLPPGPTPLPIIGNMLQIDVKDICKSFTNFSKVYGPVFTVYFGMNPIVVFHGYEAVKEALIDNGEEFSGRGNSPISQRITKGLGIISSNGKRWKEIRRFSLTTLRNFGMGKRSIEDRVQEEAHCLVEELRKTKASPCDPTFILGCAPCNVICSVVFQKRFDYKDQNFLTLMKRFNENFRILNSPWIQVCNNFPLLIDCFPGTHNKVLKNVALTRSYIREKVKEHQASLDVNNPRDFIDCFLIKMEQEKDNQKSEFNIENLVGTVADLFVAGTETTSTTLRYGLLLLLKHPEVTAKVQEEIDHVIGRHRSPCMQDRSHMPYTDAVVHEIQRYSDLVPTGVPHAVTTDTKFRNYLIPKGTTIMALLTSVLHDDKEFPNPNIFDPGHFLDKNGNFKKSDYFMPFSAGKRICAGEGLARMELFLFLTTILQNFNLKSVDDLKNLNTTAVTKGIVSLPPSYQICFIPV

CYP2D6 = CYP2D6 (Homo sapiens, UniProt P10635); assay: CYP450 inhibition in HLM

FC(F)(F)c1c(Cl)ccc(-n2ccnn2)c1Cl [8l, 1-(2,4-Dichloro-3-(trifluoromethyl)phenyl)-1H-1,2,3-triazole]
inhibition at 10 µM [1]: 18%
inhibition at 10 µM [2]: 17%
inhibition at 10 µM [3]: 43%
inhibition at 10 µM [4]: -8%
inhibition at 10 µM [5]: 9%
inhibition at 10 µM [6]: -13%
inhibition at 10 µM [7]: 26%
inhibition at 10 µM [8]: -4%
inhibition at 10 µM [9]: 6%
inhibition at 10 µM ([10]; CDK9 (Inactive)): -5%
inhibition at 10 µM ([10]; CDK9/cyclin K): -10%
inhibition at 10 µM [11]: -3%
inhibition at 10 µM [12]: 4%
inhibition at 10 µM [13]: 8%
inhibition at 10 µM [14]: 2%
inhibition at 10 µM [15]: -5%
inhibition at 10 µM [16]: -3%
inhibition at 10 µM [17]: 1%
inhibition at 10 µM [18]: 15%
inhibition at 10 µM [19]: -5%
inhibition at 10 µM [20]: 3%
inhibition at 10 µM [21]: 3%
inhibition at 10 µM [22]: 7%
inhibition at 10 µM [23]: 12%
inhibition at 10 µM [24]: 4%
inhibition at 10 µM [25]: 10%
IC50 (CYP2C8; read-out: CYP inhibition IC50, 2C8, HLM): > 50 µM
IC50 (CYP2C8; read-out: IC50 CYP2C8/Amodiaquine, (+)NADPH pre-incubation): > 50 µM
IC50 (CYP2C8; read-out: IC50 CYP2C8/Amodiaquine, (-)NADPH pre-incubation): > 50 µM
IC50 (CYP2D6; read-out: CYP inhibition IC50, 2D6, HLM): > 50 µM
IC50 (CYP2D6; read-out: IC50 CYP2D6/Dextromethorphan, (+)NADPH pre-incubation): > 50 µM
IC50 (CYP2D6; read-out: IC50 CYP2D6/Dextromethorphan, (-)NADPH pre-incubation): > 50 µM
